According to US11213536B2, “Acylated compounds for the treatment of ocular pathologies” (CONSEJO SUPERIOR DE INVESTIGACIONES CIENTÍFICAS, priority 2016, dated 2022):
Entries after “also recorded” stand apart in the source; their conditions may differ.

System: rd10 mouse
Experiment: rd10 mice retinal degeneration model, subretinal injection
Format: in vivo
Conditions: 5 mM subretinal
Text: The rd10 mouse is a model of retinitis pigmentosa due to a mutation in the Pde6b gene that results in the degeneration of the photoreceptors that begins on postnatal day 15-16 (P15-16) and is completed within one month (P30). In this model, the degeneration begins in the rods and then continues with cones and finally the retinal pigment epithelium (RPE). The degeneration in this model occurs as a consequence of the loss of the function of Pde6b, which ultimately leads to a continuous entry of Ca^++ in the […] with a significant production of reactive oxygen species (ROS), infiltration of macrophages, and activation of pro-apoptotic proteins. At the histological level, a loss of nuclei is observed in the outer nuclear layer of the retina (the layer in which photoreceptor nuclei are located), as well as the loss of the specific markers of rods (rhodopsin) and cones (opsin). The electroretinogram (ERG), which measures the electrical response of the retina to visual stimuli, is markedly affected in rd10 mice, with progressive loss of the amplitude of the a- and b-waves of the ERG. […] To evaluate the protective effect of our compounds on the retina, we first used the rd10 model. Rd10 homozygous mice were injected in the subretinal space at P13 (two to three days before the onset of degeneration) with 1 μl of vehicle (5% DMSO in PBS) or resveratrol RES (5 mM), as well as compound 2 (5 mM). Then, 15 days after having been injected, fundus, ERG, and histological changes were evaluated in the untreated mice, those treated with the vehicle, and those treated with RES and compound 2. […] The ERG in the treated mice was also evaluated 15 days after the injections. The amplitude of the a- and b-waves in the ERGs were quantified, and the statistical analysis was performed using two-way ANOVA and post hoc DMS. A value of p<0.05 was considered significant. […] Finally, the immunofluorescence study was performed in order to observe the presence of markers of rods (rhodopsin) and cones (opsin) (FIG. 10). The number of photoreceptor nuclei present in the outer nuclear layer (ONL), as well as the immunostaining of rhodopsin, was much greater in rd10 mice treated with compound 2 than in those treated with RES and in the controls.

SMILES: CCCCCCCC(=O)OCC1OC(Oc2cc(O)cc(/C=C/c3ccc(O)cc3)c2)C(O)C(O)C1O [Compound 2, trans-resveratrol-3-O-(6′-O-octanoyl)-β-D-glucopyranoside]
- amplitude of the a- and b-waves in ERG (15 days): preserved in the group treated with compound 2 in a greater proportion
- thickness of the outer nuclear layer (ONL) (15 days): greater than in the group treated with RES
- pigment accumulation in the fundus (15 days after injection): absence of pigment; also recorded: lower amount of pigment accumulation
- b-wave amplitude in dark-adapted ERG (15 days, flash intensities 0.2, 1, 3 and 10 cd s/m^2): significantly increased; also recorded: significant increase
- labeling of rhodopsin and opsin (15 days, immunofluorescence): more intense
- number of photoreceptor nuclei in the outer nuclear layer (ONL) and immunostaining of rhodopsin (15 days, immunofluorescence): much greater
